Values after ≈ are worked out from the molar mass of the structure shown. Inconclusive results are not listed. Active and inactive are the calls of the source. No rule for the calls is given here.

The subject of this assay is M. tuberculosis H37Rv growth inhibition. Description: Mycobacterium tuberculosis H37Rv growth inhibition, cell based, confirmatory dose response (AID 1949).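 Also: bacteria grown 7 days with compound before Alamar blue readout.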
As to `CC(C(=O)OCc1ccccc1)n1cnc2scc(-c3ccc(Br)cc3)c2c1=O` (configuration not stated), the half-inhibitory concentration (IC50) was 1.51 µg/mL (≈ 3.22 µM). For `COC(=O)c1sc(NC(=O)c2c(F)c(F)c(F)c(F)c2F)c(C(N)=O)c1C`, the IC50 was below 0.1 µg/mL. With `CSc1cccc(NC(=O)C2CCN(C(=O)c3ccc(-c4ccccc4)cc3)CC2)c1` the figure was 5.73 µg/mL (≈ 13.3 µM); with `CC1CC(C)CN(C(=O)Nc2ccc(Cl)c(Cl)c2)C1` (configuration not stated), 1.21 µg/mL (≈ 4.02 µM); with `COC(=O)c1ccc(/C=C/C(=O)c2cccs2)cc1`, 29.1 µg/mL (≈ 107 µM). With `COC(=O)COc1ccc2c(=O)c(Oc3ccccc3OC)c(C)oc2c1` the figure was 1.39 µg/mL (≈ 3.75 µM); with `COc1ccc(Cc2nc3sc4c(c3c(=O)n2N)CCCC4)cc1`, > 50 µg/mL (inactive); with `C/C(=N/N=C1\NC(=O)C(Cc2ccc(F)cc2)S1)c1ccc(Cl)cc1` (configuration not stated), 1.48 µg/mL (≈ 3.94 µM). As to `Oc1ccccc1-c1n[nH]c(/C=C/c2ccccc2Cl)n1`, the IC50 is 6.45 µg/mL (≈ 21.7 µM).

In the case of `CCOC(=O)C(C)Oc1ccc2c(-c3ccc(OC)cc3)cc(=O)oc2c1` (configuration not stated), the IC50 is 1.35 µg/mL (≈ 3.66 µM).

`Cc1ccc(-n2c(=O)oc3ccc(Cl)cc3c2=O)cc1`: the IC50 is > 50 µg/mL (inactive). The same measure for `CC(NC(=O)Nc1ccccc1O)(C(F)(F)F)C(F)(F)F`: 11.2 µg/mL (≈ 35.5 µM); for `Cc1nn(-c2nc3ccccc3[nH]2)c(N)c1-c1ccccc1`: 0.43 µg/mL (≈ 1.49 µM); for `COC(=O)c1cc(NC(=O)Nc2cccc(Cl)c2)cc(C(=O)OC)c1`: 0.18 µg/mL (≈ 0.496 µM). As to `CC12CC3CC(C)(C1)CC(C(=O)Nc1nc4ccccc4s1)(C3)C2`, the concentration for half-maximal inhibition (IC50) is 0.24 µg/mL (≈ 0.705 µM).

For the compound `Cc1ccc(NC(=O)CSc2ccc(F)cc2)cc1`, the IC50 is 12.3 µg/mL (≈ 44.9 µM). The same measure for `COC(=O)c1ccc(CSc2nnc(-c3ccccc3)o2)o1`: > 50 µg/mL (inactive); for `Cc1cccc(OC(C)C(=O)Nc2ccc([N+](=O)[O-])cc2)c1C` (configuration not stated): 3.13 µg/mL (≈ 9.96 µM); for `CC(NCC(O)COc1ccccc1C(C)(C)C)c1ccccc1` (configuration not stated): 2.55 µg/mL (≈ 7.79 µM). The same measure for `COc1ccc2nc(C)cc(Nc3ccccc3O)c2c1`: 8.28 µg/mL (≈ 29.5 µM).

For `COC(=O)COc1ccc(NC(=O)c2ccccc2Br)cc1`, the IC50 is 1.17 µg/mL (≈ 3.21 µM). The same measure for `O=C(Nc1cccc(CCc2ccccn2)c1)NC1CCCCC1`: 38.7 µg/mL (≈ 120 µM). With `Clc1ccc(OCCCCn2ccnc2)cc1Cl` the figure was 2.01 µg/mL (≈ 7.05 µM); with `COC(=O)C(C)Oc1ccc2c3c(c(=O)oc2c1)CCCCC3` (configuration not stated), > 50 µg/mL (inactive). As to `Cc1cccc(OCc2nnc(SCC(=O)NCCc3ccccc3)o2)c1`, the IC50 is 0.46 µg/mL (≈ 1.2 µM). The same measure for `Clc1ccc(CN2CCN(c3ncnc4scc(-c5cccs5)c34)CC2)cc1`: 20.5 µg/mL (≈ 48.1 µM); for `COc1cc2cc(-c3nc4ccccc4[nH]3)c(N)nc2cc1OC`: 3.24 µg/mL (≈ 10.1 µM); for `CC(C)(C)c1ccc(-c2noc(-c3cccnc3)n2)cc1`: 4.34 µg/mL (≈ 15.5 µM). With `N#Cc1ccc(Sc2nc3ccccc3o2)c([N+](=O)[O-])c1` the figure was > 50 µg/mL (inactive); with `Cc1cc(C)cc(NC(=S)NC2CCCC2)c1`, 8.73 µg/mL (≈ 35.1 µM).

For `Cn1c(=O)[nH]c2nnc(-c3ccccn3)nc2c1=O`, the IC50 is > 50 µg/mL (inactive). The same measure for `FC(F)(F)c1cccc(-n2cc(-c3ccccc3)c3c(NCc4cccnc4)ncnc32)c1`: 1.51 µg/mL (≈ 3.39 µM).

As to `Cc1nc(SCC(=O)N2CCC(C)CC2)c2c3c(sc2n1)CCC3`, the IC50 is > 50 µg/mL (inactive). The same measure for `O=C(NC(=S)N1CCN(C/C=C/c2ccccc2)CC1)c1ccc(Cl)cc1`: 0.39 µg/mL (≈ 0.975 µM); for `CC(=O)c1ccc(NC(=O)Nc2cc(OCC(F)(F)F)cc(OCC(F)(F)C(F)F)c2)cc1`: 2.74 µg/mL (≈ 5.68 µM); for `COc1ccccc1C1CC(=O)C2=C(C1)NC(C)=C(C(=O)OC1CCCC1)C2c1ccc(O)cc1` (configuration not stated): 4.74 µg/mL (≈ 10 µM).

Consider `O=[N+]([O-])c1ccc2nc(CSc3nc4ccccc4o3)[nH]c2c1`, for which the concentration for half-maximal inhibition (IC50) was 3.21 µg/mL (≈ 9.84 µM). With `CC(C)C(=O)N1CCN(c2ccccc2NC(=O)c2ccc([N+](=O)[O-])o2)CC1` the figure was 1.95 µg/mL (≈ 5.05 µM); with `FC(F)(F)c1nnc2n1Nc1nc3ccccc3nc1S2`, 4.52 µg/mL (≈ 14.6 µM). Regarding `COc1ccc(C(=O)CCN2CCCC(C)C2)cc1` (configuration not stated), the IC50 is 35 µg/mL (≈ 134 µM).

As for `CC(C)Cc1nc2sc3c(c2c(=O)o1)CCCCC3`, the IC50 was 5.69 µg/mL (≈ 20.5 µM). The same measure for `COC(=O)COc1ccc(NC(=O)COc2ccc(C(C)(C)C)cc2)cc1`: 0.17 µg/mL (≈ 0.458 µM); for `S=C(NCc1ccc(Cl)cc1)N1CCN(C/C=C/c2ccccc2)CC1`: 1.99 µg/mL (≈ 5.16 µM). With `CCCc1ccc(OCC(=O)Nc2ccc(F)cc2)cc1` the figure was 0.85 µg/mL (≈ 2.96 µM); with `Cc1ccc(N2C(=O)c3cccc4c(N5CCN(C)CC5)ccc(c34)C2=O)c2cccnc12`, 49.3 µg/mL (≈ 113 µM).

On to `CCOc1ccc2nc3cc(N)ccc3c(N)c2c1`, for which the half-maximal inhibitory concentration (IC50) was 0.81 µg/mL (≈ 3.2 µM). On to `Cc1ccc(OCCN2CCN(c3nc(NCc4ccco4)c4ccccc4n3)CC2)cc1`, for which the IC50 is 6.3 µg/mL (≈ 14.2 µM).

For `Brc1ccc2ncnc(Nc3ccc(N4CCCC4)cc3)c2c1`, the IC50 was below 0.1 µg/mL. With `O=C(CCc1nc(-c2ccc(Cl)cc2)no1)OCc1ccc(Br)cc1` the figure was > 50 µg/mL (inactive); with `Cc1cc(Cl)ccc1OCC(=O)Nc1ccc(N2CCN(C)CC2)c(Cl)c1`, 5.62 µg/mL (≈ 13.8 µM). The same measure for `Cc1cc(Br)c2[nH]c(O)c(N=NC(=O)COc3ccc4ccccc4c3)c2c1`: 12 µg/mL (≈ 27.5 µM). The same measure for `Cc1ccc(C(C)C)c(OCCNCc2ccccc2)c1`: > 50 µg/mL (inactive); for `O=S1(=O)C=CC2ON=C(c3ccc(C(F)(F)F)cc3)C21` (configuration not stated): 3.08 µg/mL (≈ 10.2 µM); for `CCc1ccccc1NC(=O)c1cc2cc([N+](=O)[O-])cc(OC)c2oc1=O`: > 50 µg/mL (inactive). As to `N#Cc1cc2c(nc1SCC(=O)OCc1ccccc1)CCC2`, the IC50 was 0.41 µg/mL (≈ 1.26 µM).

For the compound `O=C(NC1CCCCC1)c1cc2cc(Cl)cc(Cl)c2oc1=O`, the IC50 is > 50 µg/mL (inactive). The same measure for `Cc1ccc(C(=O)NC(=S)N(C)Cc2ccccc2)cc1`: 2.53 µg/mL (≈ 8.48 µM); for `CCOC(=O)CSc1n[nH]c(-c2ccc(Cl)cc2)n1`: 2.99 µg/mL (≈ 10 µM). Take `Oc1cccc2ccc(/C=C/c3cccc(F)c3)nc12`: the IC50 was 0.13 µg/mL (≈ 0.49 µM). The same measure for `C=CCc1cc(C)ccc1OCCCCn1ccnc1`: 1.45 µg/mL (≈ 5.36 µM); for `O=C(Oc1c(Cl)cc(Cl)c2cccnc12)c1cc(S(=O)(=O)N2CCCCC2)ccc1Cl`: 0.48 µg/mL (≈ 0.96 µM). The same measure for `COc1ccc(C(=O)C(CN2CCOCC2)c2ccccc2)cc1` (configuration not stated): 2.09 µg/mL (≈ 6.42 µM); for `COC(=O)c1c(NC(=O)c2c(F)c(F)c(F)c(F)c2F)sc2c1CCCCC2`: 0.36 µg/mL (≈ 0.858 µM). With `COc1ccccc1C(=O)Nc1ccc2oc(-c3cccc(Cl)c3)nc2c1` the figure was > 50 µg/mL (inactive); with `O=C(CSc1ccc(Br)cc1)Nc1cccc(Cl)c1`, 1.51 µg/mL (≈ 4.23 µM). As to `CC(C)(C)Nc1nc(N2CCCC2)nc(N2CCCC2)n1`, the IC50 was > 50 µg/mL (inactive). The same measure for `Cc1cc(OCCCn2ccnc2)ccc1Cl`: 1.94 µg/mL (≈ 7.74 µM); for `CCOC(=O)/C=C/C(=O)Nc1nc(-c2ccccc2)cs1`: 0.53 µg/mL (≈ 1.75 µM). The same measure for `CCCCC(=O)NC(=S)Nc1ccc(N2CCN(C(=O)c3ccco3)CC2)c(Cl)c1`: 0.67 µg/mL (≈ 1.49 µM); for `O=C(CCNc1ccc(F)c(Cl)c1)c1cccs1`: 4.3 µg/mL (≈ 15.2 µM). The same measure for `Cc1c(C(=O)NC(=S)Nc2ccc(Oc3ccc(Cl)cc3)cc2)cccc1[N+](=O)[O-]`: 1.49 µg/mL (≈ 3.37 µM); for `CCC(Oc1ccc2c(-c3ccccc3)cc(=O)oc2c1)C(=O)OCc1ccccc1` (configuration not stated): 3.8 µg/mL (≈ 9.17 µM); for `CCOC(=O)c1ccc(NC(=O)c2ccc(C)s2)cc1`: 2.22 µg/mL (≈ 7.67 µM).

For `O=S(=O)(CCSc1nc2ccccc2o1)c1nc2ccccc2s1`, the IC50 is 11.1 µg/mL (≈ 29.5 µM). The same measure for `c1ccc(COc2ccc(OCCn3ccnc3)cc2)cc1`: 10.4 µg/mL (≈ 35.2 µM); for `c1ccc2nc3c(nc2c1)Nn1cnnc1S3`: > 50 µg/mL (inactive). Regarding `O=C(Oc1cccc2cccnc12)C(Cc1ccccc1)N1C(=O)C2C3CCC(C3)C2C1=O` (configuration not stated), the 50% inhibitory concentration (IC50) is 2.76 µg/mL (≈ 6.27 µM). Take `Cc1ccc(-c2nc(NC(=O)CO)cs2)cc1`: the IC50 was 0.36 µg/mL (≈ 1.45 µM). The same measure for `COc1ccc(-c2cc(C(F)F)n3ncc(C(=O)NCCCn4ccnc4)c3n2)cc1`: 8.99 µg/mL (≈ 21.1 µM); for `Cc1ccc(NCCC(=O)c2ccc([N+](=O)[O-])cc2)cc1C`: 1.06 µg/mL (≈ 3.55 µM). With `CNCCCOc1ccc(Cl)cc1C(C)(C)C` the figure was 7.95 µg/mL (≈ 31.1 µM).

For `Cc1ccc(SCC(=O)Nc2ccc(C)c([N+](=O)[O-])c2)cc1`, the IC50 was 2.18 µg/mL (≈ 6.89 µM). With `Cc1cc(Cl)ccc1NC(=O)CCc1ccc(S(=O)(=O)NCC(C)C)cc1` the figure was 0.53 µg/mL (≈ 1.3 µM). In the case of `CCCNc1nc(Nc2ccc(C)cc2)nc(N2CCOCC2)n1`, the IC50 is 7.71 µg/mL (≈ 23.5 µM).

For `COC(=O)COc1ccc2c(=O)c(Oc3ccccc3F)c(C)oc2c1C`, the IC50 is 6.55 µg/mL (≈ 17.6 µM). With `CC(C)(C)c1cc(Cl)c(O)c(NC(=S)NC(=O)c2cccnc2)c1` the figure was below 0.1 µg/mL; with `COc1ccc(C(=O)N=Nc2c(O)[nH]c3ccc(Br)cc23)cc1`, 19.9 µg/mL (≈ 53.1 µM). With `CCOCC(=O)Nc1sc2c(c1C(=O)OCC)CCCC2` the figure was > 50 µg/mL (inactive). With `O=C(Oc1cccc2cccnc12)c1ccc(Cl)c(S(=O)(=O)N2CCOCC2)c1` the figure was 1.48 µg/mL (≈ 3.42 µM); with `Cc1ccc(NC(=O)COc2cccc(C=O)c2)cc1Cl`, 5.9 µg/mL (≈ 19.4 µM). For `CCOC(=O)C1=C(c2ccc(OC)cc2)C(=O)c2ccccc2C1=O`, the concentration for half-maximal inhibition (IC50) is 6.6 µg/mL (≈ 19.6 µM). With `O=C(Nc1ccc(Oc2ccccc2)cc1)Nc1cccc([N+](=O)[O-])c1` the figure was 1.09 µg/mL (≈ 3.12 µM); with `COC(=O)COc1ccc2c(=O)c(-c3ccccc3Cl)coc2c1`, 0.4 µg/mL (≈ 1.16 µM). Consider `CCCn1c(NCc2ccc(Br)cc2)nc2ccccc21`, for which the IC50 was 4.3 µg/mL (≈ 12.5 µM). The same measure for `N#Cc1ccc(NC(=O)CSc2ccc(Cl)cc2)cc1`: 2.94 µg/mL (≈ 9.71 µM); for `CC(=O)Cc1nc(-c2ccccc2)no1`: > 50 µg/mL (inactive); for `CC12CCC(C(=O)Oc3cccc4cccnc34)(CC1=O)C2(C)C` (configuration not stated): 1.57 µg/mL (≈ 4.85 µM).

Turning to `Cc1ccc(Cn2cnc3sc4c(c3c2=O)CCCC4)cc1`, the IC50 was 8.41 µg/mL (≈ 27.1 µM). With `CC(Oc1ccc(C(C)(C)C)cc1)c1nc(-c2ccncc2)no1` (configuration not stated) the figure was 22.8 µg/mL (≈ 70.6 µM). With `NC(=O)CSc1nnc(SCc2ccc(F)cc2)s1` the figure was 9.02 µg/mL (≈ 28.6 µM). Turning to `Clc1ccc(-c2csc(-c3cccnc3)n2)cc1`, the IC50 was 5.82 µg/mL (≈ 21.3 µM). With `CCNc1nc(NCC)nc(SCCOc2ccc(Br)cc2)n1` the figure was 4.24 µg/mL (≈ 10.6 µM).

Broadly, the IC50 is the concentration that gives 50% inhibition.

The values above are taken from PubChem BioAssay AID1949 (Southern Research Institute, 2009).
